Among the data in the supplement of paper PMC3493320 are IC50 values, retold here.

The test system of this assay is NCI-H295R. In words: IC50 (antiproliferative, ATP content). Conditions: 48 h. The method, boiled down: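 Cell viability of adrenocortical carcinoma cells was assessed as ATP by CellTiter-Glo luminescence. Cells at 1500 per well in 1536-well plates, in serum-free DMEM with ITS, received compounds by pin transfer at 8 final concentrations (0.6 nM–46 µM) after overnight culture and were then held 48 h at 37 °C, 5% CO2. IC50 was calculated by logistic fitting against vehicle and positive-control wells, compounds with no concentration response being recorded as above the top dose.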
As usually defined, the IC50 is the point on the concentration scale where inhibition reaches its midpoint. Higher therefore signals a need for much substance. On to `CC(C)Cc1ccc(C(C)C(=O)O)cc1` (stereo unspecified), for which the IC50 was greater than 46 µM. Compound `FC(F)OC(Cl)C(F)(F)F` (stereo unspecified) showed a half-maximal inhibitory concentration (IC50) greater than 46 µM.

Consider `O=C2N1[C@]([C@@]([H])2NC(C3=C(C)ON=C3C(C(Cl)=CC=C4)=C4F)=O)([H])SC(C)(C)[C@@H]1[C@@]([O-])=O.[Na+]`, for which the IC50 was greater than 46 µM.

`CS(=O)(=O)Nc1cc2\C=C(/Nc2cc1)C(=O)N3CCN(CC3)c4ncccc4NC(C)C` yielded a 50% inhibitory concentration (IC50) greater than 46 µM. As to `CC(=O)Nc1ccc(OCCOCCOc2ccc(NC(C)=O)cc2)cc1`, the half-inhibitory concentration (IC50) was greater than 46 µM. Regarding `CC[C@@H]1C(=O)OC[C@@H]1Cc1cncn1C`, the concentration for half-maximal inhibition (IC50) was greater than 46 µM. With `O=C(O)c1cc(N=Nc2ccc(S(=O)(=O)Nc3ccccn3)cc2)ccc1O`, the concentration for half-maximal inhibition (IC50) is greater than 46 µM. Compound `CCCC(CCC)C(=O)O` came in with a half-inhibitory concentration (IC50) greater than 46 µM. `CC(C)(C)NCC(O)c1cc(Cl)c(N)c(C(F)(F)F)c1.Cl` (stereo unspecified) had an IC50 greater than 46 µM. Consider `[Na+].[Na+].[O-]C(=O)c4ccccc4C=2c3cc(Br)c([O-])c(Br)c3OC=1C=2\C=C(\Br)C(=O)C=1Br`, for which the concentration for half-maximal inhibition (IC50) is greater than 46 µM. The value for `CC(C(O)c1ccc(O)cc1)N1CCC(Cc2ccccc2)CC1` (stereo unspecified) was greater than 46 µM; that for `Cc1c(C)c2c(c(C)c1O)CC[C@@](C)(CCC[C@H](C)CCC[C@H](C)CCCC(C)C)O2` was greater than 46 µM; that for `Cn1sc(Cl)cc1=O` was greater than 46 µM. As for `CCOc1ccc(NC(C)=O)cc1`, the figure is greater than 46 µM; as for `COC(=O)[C@@H](N)CCCN/C(N)=N/[N+](=O)[O-]`, greater than 46 µM. Turning to `O=C1CC2(CCCC2)CC(=O)N1CCCCN1CCN(c2ncccn2)CC1`, the IC50 is greater than 46 µM. `CCC1(c2ccccc2)C(=O)NC(=O)NC1=O` returned an IC50 greater than 46 µM. The value for `CCCCOc1cc(C(=O)NCCN(CC)CC)c2ccccc2n1` was greater than 46 µM.

Regarding `O=C1c2ccccc2CN2C(=O)c3ccccc3CN12`, the IC50 is greater than 46 µM. Compound `COc1ccccc1OC(=O)Oc1ccccc1OC` yielded an IC50 greater than 46 µM.

As to `CC(=O)OCC(=O)[C@@]1(O)CC[C@H]2[C@@H]3CCC4=CC(=O)C=C[C@]4(C)[C@@]3(F)[C@@H](O)C[C@@]21C`, the IC50 is greater than 46 µM. `OCC(=O)[C@@]3(O)CC[C@H]2[C@@H]4CC\C1=C\C(=O)CC[C@]1(C)[C@H]4C(=O)C[C@@]23C` gave a half-inhibitory concentration (IC50) greater than 46 µM. The value for `CCCCC1=NC2(CCCC2)C(=O)N1Cc1ccc(-c2ccccc2-c2nnn[nH]2)cc1` was greater than 46 µM; that for `Cl.O=C(Nc1ccccc1)OCC(CN1CCCCC1)OC(=O)Nc1ccccc1` (stereo unspecified) was greater than 46 µM.

In the case of `CN[C@@H]1[C@@H](O)[C@@H](O[C@@H]2[C@H](O)[C@H](O[C@H]3OC(CN)=CC[C@H]3N)[C@@H](N)C[C@H]2N)OC[C@]1(C)O`, the half-maximal inhibitory concentration (IC50) is greater than 46 µM. The compound `NS(=O)(=O)c1ccc(C(=O)O)cc1` gave a concentration for half-maximal inhibition (IC50) greater than 46 µM. Turning to `CN[C@@H](C)[C@@H]1CC[C@@H](N)[C@@H](O[C@H]2[C@H](O)[C@@H](O[C@H]3OC[C@](C)(O)[C@H](NC)[C@H]3O)[C@H](N)C[C@@H]2N)O1.O=S(=O)(O)O`, the IC50 was greater than 46 µM. Regarding `C[C@]12C[C@H](O)[C@H]3[C@@H](CCC4=CC(=O)CC[C@@]43C)[C@@H]1CC[C@H]2C(=O)CO`, the IC50 was greater than 46 µM.

In turn, `O[C@@H]([C@H](O)[C@H](O)CBr)[C@H](O)CBr` returned an IC50 greater than 46 µM. `CCCCNC(=O)NS(=O)(=O)c1ccc(N)cc1`: the IC50 is greater than 46 µM. As for `ClC1C(Cl)C(Cl)C(Cl)C(Cl)C1Cl` (stereo unspecified), the figure is greater than 46 µM; as for `Nc1ncnc2c1ncn2CCOCP(=O)(O)O`, greater than 46 µM; as for `NCC(O)c1ccc(O)cc1` (stereo unspecified), greater than 46 µM.

In the case of `CCCCOC(=O)c1ccc(O)cc1`, the 50% inhibitory concentration (IC50) is greater than 46 µM. Consider `Nc1ccc(S(=O)(=O)Nc2ncccn2)cc1`, for which the IC50 is greater than 46 µM. `C[C@@H]1CN(c2c(F)c(F)c3c(=O)c(C(=O)O)cn(C4CC4)c3c2F)C[C@H](C)N1` displayed a 50% inhibitory concentration (IC50) greater than 46 µM. The compound `CCN(CC)C(=S)[S-].[Na+]` returned a concentration for half-maximal inhibition (IC50) greater than 46 µM. Turning to `CSCCC(N)C(=O)O` (stereo unspecified), the IC50 was greater than 46 µM. In turn, `Cc1ccccc1` displayed a concentration for half-maximal inhibition (IC50) greater than 46 µM. Take `Cc1ncc(COP(=O)(O)O)c(CN)c1O`: the 50% inhibitory concentration (IC50) was greater than 46 µM. In turn, `CCc1cccc2c3c([nH]c12)C(CC)(CC(=O)O)OCC3` (stereo unspecified) gave an IC50 greater than 46 µM.

Compound `CC(=O)O[C@H]1C[C@@]2(C)[C@@H](C[C@@H](O)[C@H]3[C@@]4(C)CC[C@@H](O)[C@@H](C)[C@@H]4CC[C@@]32C)/C1=C(\CCC=C(C)C)C(=O)[O-].[Na+]` registered a half-maximal inhibitory concentration (IC50) greater than 46 µM. In turn, `O=C(O)Cn1c(C(=O)Nc2nc(-c3ccccc3Cl)cs2)cc2ccccc21` registered a half-maximal inhibitory concentration (IC50) greater than 46 µM. As for `COc1cc(-c2ccc(=O)[nH]n2)ccc1OC(F)F`, the figure is greater than 46 µM; as for `COc1cc(N)c(Cl)cc1C(=O)NC1CCN(CCCOc2ccc(F)cc2)CC1OC` (stereo unspecified), greater than 46 µM. As for `C[C@]43CCC(=O)\C=C4\CC[C@@H]1[C@@H]3CC[C@]2(C)[C@@](O)(CC[C@@H]12)C#C`, the figure is greater than 46 µM; as for `Nc1ncnc2c1ncn2[C@@H]1O[C@H](COP(=O)(O)OP(=O)(O)OP(=O)(O)O)[C@@H](O)[C@H]1O`, greater than 46 µM; as for `CCCCCCCCCCCCCCCCCCOC[C@H](COP(=O)([O-])OCC[N+](C)(C)C)OC`, greater than 46 µM. In turn, `[C@@]2\1(\C(=C/C(/C=C/1)=O)CC[C@@H]4[C@@H]2CC[C@@]3([C@](O)(C)CC[C@H]34)C)C` came in with a half-inhibitory concentration (IC50) greater than 46 µM. With `CN(C)CC/C=C1/c2ccccc2COc2ccc(CC(=O)O)cc21.Cl`, the half-inhibitory concentration (IC50) was greater than 46 µM. The compound `CN1CCC\C(C1)=C(/C2=CC=CS2)C3=CC=CS3` had an IC50 greater than 46 µM. Compound `O=C(O)CCn1c2c(c3ccccc31)C[C@H](NS(=O)(=O)c1ccc(F)cc1)CC2` gave a 50% inhibitory concentration (IC50) greater than 46 µM. `n\24c1c(CCN3[C@H]1[C@](/C=C/2C(=O)OCC)(CCC3)CC)c5c4cccc5` returned an IC50 greater than 46 µM. As for `CC1COc2c(N3CCN(C)CC3)c(F)cc3c(=O)c(C(=O)O)cn1c23` (stereo unspecified), the IC50 was greater than 46 µM. The compound `C=C1[C@@H]2CC[C@@H](C2)C1(C)C` registered an IC50 greater than 46 µM. As for `O=C(O)CNC(=O)c1ccccc1`, the figure is greater than 46 µM. The compound `CC(C(=O)O)c1cccc(C(=O)c2ccccc2)c1` (stereo unspecified) showed a half-maximal inhibitory concentration (IC50) greater than 46 µM. Regarding `Cc1ccccc1/N=N/c1ccc(/N=N/c2c(O)ccc3ccccc23)c(C)c1`, the IC50 was greater than 46 µM. The compound `Cc1ccc(/C(=C\CN2CCCC2)c2ccccn2)cc1` gave an IC50 greater than 46 µM. Regarding `Cc1cc(C(C)(C)C)cc(C)c1CC1=NCCN1.Cl`, the concentration for half-maximal inhibition (IC50) is greater than 46 µM. On to `Cl.O=C(c1ccc(F)cc1)C1CCN(CCn2c(=S)[nH]c3ccccc3c2=O)CC1`, for which the IC50 was greater than 46 µM. As for `CCN(CC)CC(=O)Nc1c(C)cccc1C`, the figure is greater than 46 µM; as for `C=CCN1C[C@H](C)N([C@H](c2ccc(C(=O)N(CC)CC)cc2)c2cccc(OC)c2)C[C@H]1C`, greater than 46 µM; as for `O=C(NC(Cc1cc(=O)[nH]c2ccccc12)C(=O)O)c1ccc(Cl)cc1` (stereo unspecified), greater than 46 µM. `O=C1[O][Pt]2([NH][C@@H]3CCCC[C@H]3[NH]2)[O]C1=O`: the IC50 is greater than 46 µM. Take `OCC(CO)N[C@H]1C[C@](O)(CO)[C@@H](O)[C@H](O)[C@H]1O`: the IC50 is greater than 46 µM.
